What was measured:
[1] = test system: relapsing remitting multiple sclerosis patients; test: Expanded Disability Status Scale (EDSS) change and disability progression; type: in vivo, human; conditions: for Proportion of pts with progression at 24 months % (95% CI): EDSS progression sustained at least 6 months, Kaplan-Meier; for EDSS change at 24 months (median): within group comparison vs baseline, negative values indicate improvement
Method: Standardized neurologic assessments, including an EDSS assessment, were performed at months 0, 3, 6, 12, 18 and 24, and at the time of a suspected relapse (as an additional unscheduled visit). EDSS assessments were performed by physicians who were trained either by in-person training or online (www.Neurostatus.net). MRI scans were obtained at screening and at months 0, 3, 6, 12 and 24. Subjects were seen or contacted every 3 months for compliance assessments and for dispensing medications.
Secondary efficacy end points included the proportion of subjects with a relapse over all 24 months, a change in PASAT cognitive testing, a sustained improvement in PASAT cognitive testing (as defined by an increase of at least 3 points sustained over at least 6 months), a change in EDSS scores from baseline, disability progression (as defined by an increase in EDSS of at least 1.0 point in subjects with a baseline score of 1.0 or higher, or by an increase of at least a 1.5 points in subjects with a baseline score of 0, each sustained for at least 6 months). Tertiary end points included gray matter atrophy on MRI.
For the time to first relapse analysis, Kaplan Meier curves and log-rank test were used to estimate and compare the relapse free probabilities of the two treatment groups. Cox proportional hazards model was used to compare the time to relapse free probabilities between two groups adjusting for covariates. The fixed effects include treatment groups (Estriol+GA vs Placebo+GA), baseline lesion number, age and baseline EDSS score. The random effect of subject is included in the model to account for within subject correlation.
Linear mixed effects model was carried out to compare the percent change in whole gray matter and cortical gray matter between treatment groups. For the exploratory endpoints of EDSS, PASAT, and brain volume measures, linear mixed effects model was used to compare treatment groups at 12 and 24 months. Linear mixed effects model was carried out to evaluate the association between PASAT change and percent brain volume change.

[2] = test system: relapsing remitting multiple sclerosis patients; test: Delayed Recall Test, proportion with perfect score; type: in vivo, human
Method: The estriol and placebo subjects were administered the Delayed Recall Test periodically throughout the study. A perfect score on the test is 7, and for both treatment groups, the median score was also 7. Therefore, performance was assessed by the proportion of subjects in each group who achieved a perfect score on the test. […] Logistic regression for repeated measurement was used to compare the probability having a perfect score between the two treatment groups, adjusting for age, education level, and baseline recall (Table 9).

[3] = set-up: species or system human; conditions: in vivo
Description: Safety assessments, including clinical, blood laboratory safety testing and assessments of estriol levels, occurred at months 0, 3, 6, 12, 18, and 24. On study blood tests included complete blood count (CBC) with differential and platelets; chemistry panel including sodium, potassium, creatinine, BUN, glucose, total protein, albumin, bilirubin (total), alkaline phosphatase, AST (SGOT), and ALT (SGPT), and lipid profile (HDL, LDL and triglycerides, cholesterol. Gynecologic exams were done at month 0, 6, 18 and at month 24 exit, with uterine ultrasounds at months 6, 18 and at month 24 exit. Mammograms were done in screening and at month 24 exit. Adverse event analysis was based on the percentage of patients who discontinued the study and the percentage of patients who discontinued the study possibly due to adverse events.
The rate of discontinuation was similar between groups (FIG. 1). A total of 60 patients (73.2%) in the Estriol plus GA group and 56 (73.7%) in the Placebo plus GA group completed the 24 month study treatment duration. Of the 158 patients, 15.8% discontinued the study during the first year (7.6% in the Estriol plus GA group and 8.2% in the Placebo plus GA group), and an additional 10.7% discontinued the study during the second year (6.3% and 4.4%, respectively). […] The most common reasons for discontinuation were lost to follow up or patient's decision based on family issues or time constraints.

[4] = test system: multiple sclerosis patients; test: Total (whole) brain gray matter volume change on brain MRI, SIENAX segmentation (Example 1); type: in vivo, human; conditions: over 24 months
Method: The effect of estriol treatment as compared to placebo treatment on total (whole) brain gray matter (GM) atrophy was assessed since gray matter atrophy is a surrogate marker for permanent disability in MS. […] The GM volume change from the month 0 scan to the month 12 scan and then the volume change from the month 0 scan to the month 24 scan was calculated.

- Endometrial biopsies performed - (%) [3]: (8) %
- Endometrial thickness >8 mm (ultrasound) - (%) [3]: (36) %
- Fibrocystic disease on clinical exam, number [3]: 4
- Fibrocystic disease on clinical exam, value in parentheses [3]: (5)
- Fibroids (ultrasound) - (%) [3]: (11) %
- Mammogram with malignancy [3]: 0
- Vaginal infection - no. of events [3]: occurred more
Substance: glatiramer acetate [Placebo + GA]
- Proportion of pts with progression at 24 months % (95% CI) [1]: 15.8 (8.8-27.6) %
- Proportion of pts with progression at 24 months % (95% CI) ([1]; listed as Placebo plus GA): 15.8%
- EDSS scores over 24 months, slope ([1]; FIG. 6): −0.01
- EDSS change at 24 months (median) [1]: 0
- EDSS change at 24 months (median) ([1]; listed as Copaxone® plus placebo): no change
- EDSS change at 24 months (median) ([1]; listed as Placebo plus GA): stable and unchanged
- Percentage of subjects achieving a perfect score on the Delayed Recall Test ([2]; Month 3): 65.9 (48/74) %
- Percentage of subjects achieving a perfect score on the Delayed Recall Test ([2]; Month 6): 76.1 (54/71) %
- Percentage of subjects achieving a perfect score on the Delayed Recall Test ([2]; Month 12): 69.8 (44/63) %
- Percentage of subjects achieving a perfect score on the Delayed Recall Test ([2]; Month 18): 65.4 (36/55) %
- Percentage of subjects achieving a perfect score on the Delayed Recall Test ([2]; Month 24): 75.0 (42/56) %
- Delayed Recall Test, Estimated perfect score rate (95% CI) ([2]; logistic regression for repeated measurement, adjusted for age, education level, baseline recall): 73.2 (65.7, 79.5) %
- Adverse events leading to discontinuation - (%) [3]: (6%)
- overall rate of GM atrophy [4]: over 1.0 % per year

— patent US10821117B2, “Estrogen therapy for brain gray matter atrophy and associated disability” (The Regents of the University of California, priority 2014, dated 2020)
